Test results published in US20210378985A1, “METHOD AND COMPOUND FOR THE TREATMENT OF HEPATITIS C” (priority 2020, published 2021).

Experiments:
gamma interferon = assay: Gamma interferon production stimulated by 90I; type: cell-based; settings: versus positive control PMA-Ionomycin combination
HIV-1 [1] = assay: Cell-based time course study (mode of action); settings: drug addition at various time points
Excerpt: The time course study may be an important tool for the determination of viral kinetics and drug mode of action. The dynamics of drug-virus interaction, competitive or non-competitive, kinetics provides a dose response curve from which a broad lead mechanism of action can be drawn. The dynamics of the interactions relate to the viral kinetic of infection and drug addition at various time points.

HIV-1 [2] = assay: Co-cultivation of HIV-1 infected cells with uninfected target cells; type: cell-based
Excerpt: Viral pathogenesis in co-cultivation of infected cells with uninfected target cells presents a complex system with several target sites (attachment, fusion, transcription, processing, packaging and budding).
In many documented antiretroviral studies, the co-culture system is conventionally used to isolate the virus as well as to study cell-to-cell transmission or to determine if a given compound blocks cell fusion.

HCV subgenomic replicon = settings: at both mRNA and protein level; cited from earlier work
[3] = system: core protein in Huh 7 cells; settings: cited from earlier work

O=C(OCCOCCOC(=O)c1ccccc1)c1ccccc1 [Compound 90I, diethylene glycol dibenzoate]
amount of gamma interferon produced (gamma interferon): equivalent to that of the positive control
mode of action (early/late) (HIV-1 [1]): works both early and late
syncytium formation (HIV-1 [2]): drastic drop of syncytium formation
cell viability (HIV-1 [2]; exponential cell growth dynamics): greater than ninety percent

C[C@@H]1CC[C@@]2(OC1)O[C@H]1C[C@H]3[C@@H]4CC=C5C[C@@H](O)CC[C@]5(C)[C@H]4CC[C@]3(C)[C@H]1[C@@H]2C [Diosgenin]
replication of HCV subgenomic replicon (HCV subgenomic replicon): effectively blocked the replication of the HCV subgenomic replicon

O=C1C[C@@H](c2ccc(O)cc2)Oc2cc(O)cc(O)c21 [Naringenin]
activity of core protein ([3]; Huh 7 cells): suppressed the activity of core protein
assembly of HCV particles [3]: effectively blocked the assembly of HCV particles
